Reference: paper PMC7782785, “Outer-membrane-acting peptides and lipid II-targeting antibiotics cooperatively kill Gram-negative pathogens” (Communications Biology, 2021)
Values after ≈ are worked out from the molar mass of the structure shown. Where a SMILES comes first, the peptide text is derived from it. [ ]: non-standard residue; d: D form.

What was measured:
[1] = human plasma (EDTA K2), 3.2 mM peptide, 37 °C, 200 rpm, samples at 1, 3, 6 h; read-out halo size in spot-on-lawn against K. pneumoniae LMG 20218; triplicate
Method: For plasma stability, the peptides were lyophilized and resuspended in plasma or PBS (as a control) at a final concentration of 3.2 mM. After that, the peptides were incubated with shaking (200 rpm) during 6 h at 37 °C. At time 1, 3, and 6 h, 10 µL samples were tested against K. pneumoniae LMG 20218 by a spot-on-lawn test. Reduction in the size of the halo was related to the degradation of the peptide. The test was performed in triplicate.

[2] = test system: E. faecalis V583; format: cell-based
Method: (§1) MIC tests were performed in triplicate by liquid growth inhibition microdilution assays in sterile polypropylene microtiter plates according to the Clinical and Laboratory Standards Institute (CLSI) guideline for bacteria that grow aerobically. Briefly, the indicator strains were first streaked on the appropriate agar plate, and then single colonies were picked and incubated overnight in liquid broth. The final inoculum of bacteria was 5*10^5 CFU/mL prepared in CAMHB (cationic adjusted Mueller–Hinton broth, Sigma-Aldrich) or CAMHB plus 5% of lysed horse blood (TCS Biosciences, Buckingham, UK) in the case of S. pneumoniae. The antimicrobials were 2-fold serially diluted and 50 µL diluted bacterial suspension was added to each well to make the final volume 100 µL. The microtiter plates and the count plates were incubated at 37 °C for 16–20 h without shaking. Growth inhibition was assessed by measuring the OD600 using a microplate reader (Tecan Infinity F200). The lowest concentration of the antimicrobials that inhibits visible growth of the indicator strain is identified as the MIC value.

[3] = test system: E. faecium LMG16003; format: cell-based
Method: as §1

[4] = test system: S. aureus LMG8224; format: cell-based
Method: as §1

[5] = test system: all the Gram-negative strains tested; test: organism not typed
Method: as §1
(§2) The condition for the tests and the analysis of the plates were performed as described above for the MIC tests.
Hemolytic activity was determined with fresh human red blood cells (hRBCs)[28]. The hRBCs were centrifuged (1000×g, 5 min) and the supernatant was discarded. The pellets were washed three times with PBS and diluted in PBS to make the cell stock solution with a cell density of 2*10^8 cells/mL. […] 1% Triton X-100 and PBS were used as controls. […] The supernatant was transferred to a new 96-well plate and hemolysis was monitored by measuring the absorbance at 450 nm (OD450). Hemolysis levels were calculated as percentage. % hemolysis = 100 × (As−A0)/(At−A0), where As, A0, and At are the absorbance of the hRBCs suspension in PBS with antimicrobial agents (As), without antimicrobial agents (A0), and with 1% Triton X-100 (At). […] For the TI calculation (TI = MHC/GM), other factors as the GM (geometric mean of MIC value of all the Gram-negative strains tested) were calculated.

[6] = test system: S. pneumoniae R6; test: MIC, broth microdilution; format: cell-based; conditions: S. pneumoniae R6 (Gram-positive); compound alone; CAMHB plus 5% lysed horse blood
Method: as §1

[7] = test system: A. baumannii LMG 01041
Method: (§3) For the synergy test, standard checkerboard broth microdilution assays were conducted to test the synergistic effect of combined antimicrobials using the same condition as before[51],[56]. […] The initial concentration of both peptides was their individual MIC. 50 µL fresh bacterial suspension prepared as above was added to the wells already containing the antimicrobial compound mixture to achieve 100 µL final volume per well.
(§4) The fractional inhibitory concentration (FIC) indices[57] were calculated using the formula FICI = FICa + FICb = MICac/MICa + MICbc/MICb, to determine whether the combination is additive, synergistic or antagonistic[51],[57]. The MICa and MICb is the MIC of compound A or B alone, respectively. MICac is the MIC of compound A in combination with compound B and MICbc is the MIC of compound B when it was combined with compound A. The FIC corresponds to the MIC of a compound in combination with the other compound, divided by the MIC of the compound alone. FICa is FIC of compound A while FICb is FIC of compound B. The FICI was interpreted according to EUCAST[58] as follows: synergistic, FICI ≤ 0.5; additive,0.5 < FICI ≤ 1; indifferent, 1 < FICI < 2; antagonistic, FICI ≥ 2.
as §2

[8] = test system: K. pneumoniae LMG 20218; conditions: LMG 20218
Method: as §3, §4, §2

[9] = test system: P. aeruginosa LMG 6395
Method: as §3, §4, §2

[10] = test system: E. aerogenes LMG 02094
Method: as §3, §4, §2

[11] = test system: E. coli LMG 15862
Method: as §3, §4, §2

[12] = test system: human red blood cells (hRBCs); test: Hemolytic activity; conditions: 1 h
Method: Hemolytic activity was determined with fresh human red blood cells (hRBCs)[28]. The hRBCs were centrifuged (1000×g, 5 min) and the supernatant was discarded. The pellets were washed three times with PBS and diluted in PBS to make the cell stock solution with a cell density of 2*10^8 cells/mL. […] 1% Triton X-100 and PBS were used as controls. The cells were incubated at 37 °C for 1 h and centrifuged at 2000 rpm for 5 min. The supernatant was transferred to a new 96-well plate and hemolysis was monitored by measuring the absorbance at 450 nm (OD450). Hemolysis levels were calculated as percentage. % hemolysis = 100 × (As−A0)/(At−A0), where As, A0, and At are the absorbance of the hRBCs suspension in PBS with antimicrobial agents (As), without antimicrobial agents (A0), and with 1% Triton X-100 (At). […] For the TI calculation (TI = MHC/GM), other factors as the GM (geometric mean of MIC value of all the Gram-negative strains tested) were calculated.

[13] = test system: HEK-293 cells; test: Cytotoxicity, cell viability (CellTiter-Glo); conditions: all the concentrations tested (up to 88 µM)
Method: 96-well plates were seeded with HEK-293 cells at a concentration of 3*10^5 cells/well in 100 µL of DMEM growth medium supplemented with 1% NEAA and 10% FBS. Border wells were filled with 100 µL of sterile PBS. […] ATP levels were measured by adding 50 µL of CellTiter-Glo reagent (Promega, Madison, US) to each well, and luminescence was measured with a SpectraMax i3 microplate reader after 5 minutes of incubation. The potential effect of the tested compounds on cell viability was determined by comparing the signal obtained in the presence of different concentrations of the compounds with those obtained in the control wells. All these tests were performed in triplicate.

[14] = test system: A. baumannii LMG 01041; test: microbe, parasite or virus in culture; conditions: LMG 01041
Method: as §1, §2

[15] = test system: K. pneumoniae LMG 20218; test: microbe, parasite or virus in culture; conditions: LMG 20218
Method: as §1, §2

[16] = test system: P. aeruginosa LMG 6395; test: microbe, parasite or virus in culture; conditions: LMG 6395
Method: as §1, §2

[17] = test system: E. aerogenes LMG 02094; test: microbe, parasite or virus in culture; conditions: LMG 02094
Method: as §1, §2

[18] = test system: E. coli LMG 15862; test: microbe, parasite or virus in culture; conditions: LMG 15862
Method: as §1, §2

CC[C@@H](C)[C@@H](NC(=O)[C@H](N)CCCNC(=N)N)C(=O)N[C@@H](C(=O)N[C@H](CCC(N)=O)C(=O)N[C@H](CCCNC(=N)N)C(=O)N[C@@H](C(=O)N[C@H](CCCCN)C(=O)N[C@H](CCCCN)C(=O)N[C@H](Cc1c[nH]c2ccccc12)C(=O)N[C@H](CC(C)C)C(=O)N[C@H](CCCNC(=N)N)C(N)=O)[C@H](C)CC)C(C)C [D-11] (H-[dR][dI][dV][dQ][dR][dI][dK][dK][dW][dL][dR]-NH2)
stability in plasma [1]: completely resistant to degradation in plasma
MIC [2]: 64 µM (≈ 95.7 µg/mL)
MIC [3]: 10.6 µM (≈ 15.8 µg/mL)
MIC [4]: > 85 µM
GM, MIC geometric mean against all the Gram-negative strains tested [5]: 30.75 µM
MIC [6]: > 85 µM
FICI, peptide + nisin [7]: 0.094
FICI, peptide + nisin [8]: 0.078
FICI, peptide + nisin [9]: 0.156
FICI, peptide + nisin [10]: 0.188
FICI, peptide + nisin [11]: 0.375
TI, therapeutic index (MHC/GM) [12]: 39.03
MHC, minimal hemolytic concentration that caused 10% hemolysis of hRBCs ([12]; red cells of human): 1200 µM
MHA, mean hemolytic activity ([12]; red cells of human, 50 µM): 0%
MHA, mean hemolytic activity ([12]; red cells of human, 100 µM): 0%
MHA, mean hemolytic activity ([12]; red cells of human, 200 µM): 0%
MHA, mean hemolytic activity ([12]; red cells of human, 400 µM): 0%
MHA, mean hemolytic activity ([12]; red cells of human, 600 µM): 0%
effect on viability of HEK-293 cells [13]: did not affect the viability
MIC [14]: 8 µM (≈ 12 µg/mL)
MIC [15]: 32 µM (≈ 47.8 µg/mL)
MIC [16]: 16 µM (≈ 23.9 µg/mL)
MIC [17]: 32 µM (≈ 47.8 µg/mL)
MIC [18]: 4 µM (≈ 5.98 µg/mL)
